This experiment has as its system γ-H2AX. Briefly: Immunoblot and immunofluorescence of γ-H2AX in ES2 cells. It counts as cell-based, human. Particulars: ARID1A-knockdown ES2 cells; teriflunomide 15 μM, AZD6738 1.5 μM, VX-970 0.075 μM; 24-72 h. As to the method: Immunoblot Analysis and Co-Immunoprecipitation Assay. For immunoblotting experiments, cells were lysed in BC200 lysis buffer [20 mM Tris-HCl (pH 7.5), 200 mM NaCl, 1 mM EDTA, 0.2% Nonidet P-40 (NP-40), freshly added complete protease inhibitor cocktail (from Roche), and PhosSTOP phosphatase inhibitor (from Roche)] or in boiling SDS lysis buffer [1% SDS and 10 mM Tris-CI (pH 7.5)], as previously described^21. Protein concentrations were quantified using a modified Lowry assay, and equal protein amounts were loaded onto a 10% SDS-PAGE gel and separated by gel electrophoresis, followed by transfer to a nitrocellulose membrane. The nitrocellulose membrane was stained with Ponceau S to confirm equal protein loading and then blocked in 2% BSA in Tris-buffered saline with 0.1% Tween-20 (tris buffered saline with tween, or TBST). Primary antibody incubation was done for 2 h at room temperature or, for phospho-specific antibodies, overnight at 4° C. An HRP-conjugated secondary antibody was used, followed by detection using enhanced chemiluminescence substrate (from Pierce). Autoradiograph images were scanned and saved as unmodified TIFF images, and densitometry analysis was done with ImageJ (from NIH) software.
Immunofluorescence. […] Images of cells were acquired using a BZ-X710 fluorescence microscope (from KEYENCE) and analyzed using ImageJ (from NIH).
In general terms: Immunoblotting shows a protein as a band on a membrane.

Structures are written as SMILES.

For `C[C@@H]1COCCN1c1cc(C2([S@](C)(=N)=O)CC2)nc(-c2cc[nH]c3nccc2-3)n1` [AZD6738], the γ-H2AX protein levels entry is recorded as “increased”.

The values are drawn from patent publication US11801232B2, “Targeting of ARID1A-deficient cancers by inhibiting de novo pyrimidine synthesis pathway” (YALE UNIVERSITY, priority 2019, dated 2023).
